This note sets out measurements from patent US4680386A, “6-O-methylerythromycin a derivative” (Taisho Pharmaceutical Co., Ltd., priority 1984, dated 1987).

Test [1] relates to Staphylococcus aureus Smith No. 4. Description: In vivo antibacterial activity, oral treatment of intraperitoneally infected mice. Further details: species or system ICR mice. The conditions noted are these: one hour after infection, 7-day survival, Litchfield-Wilcoxon, 95% confidence limits given.
The test system is the same in test [2]. The description is as above. Particulars: for number of mice surviving for 7 days after the infection: one hour after infection, 10 mice per group. Details: species or system ICR mice. As to the method:
10 male ICR mice (Charles River) being of the average body weight 23 g were used for each group. Staphylococcus aureus Smith No. 4 was grown on heart infusion agar medium at 37° C. for 18 hours. The bacteria were suspended in BSG (containing 8.5 g of NaCl, 300 mg of KH2 PO4, 600 mg of Na2 HPO4, 100 mg of gelatin and 1000 ml of water) to show 6×10^7 cfu/ml (containing 5% of mucin). The bacterial suspension (0.5 ml) was injected intraperitoneally to each groups of mice for infection. Erythromycin A and erythromycin A 9-oxime were used as control. An hour after infection, each compound was administered orally to different groups of animals in the specified amounts to study its therapeutic effect.
The therapeutic effect of the drugs was judged by the […] value calculated from the number of mice surviving for 7 days after the infection according to the method of Litchfield-Wilcoxon.

The test system of test [3] is Bacillus subtilis ATCC 6633. In words: In vitro antibacterial activity (MIC method specified by the Japan Chemotherapeutic Society). The test is classed as cell-based. The protocol:
(§1) The antibacterial activity of the compound I against various bacteria was measured using sensitive media (produced by Eiken Co.) according to the MIC method specified by the Japan Chemotherapeutic Society. Erythromycin A was used as a control.

Test [4] deals with Streptococcus faecalis 8043. The description is as above. The test is classed as cell-based. As to the method:
as §1

Test [5] has as its system Escherichia coli NIHJ JC-2. Described as above. The test is classed as cell-based. The conditions noted are these: NIHJJC2, sensitive media (Eiken), read-out: MIC value (minimum inhibitory concentration). The protocol:
as §1

Test [6] has as its system Staphylococcus aureus FDA 209P. Described as above. In kind it is cell-based. Particulars: FDA209P, read-out: MIC value (minimum inhibitory concentration). As to the method:
as §1

For test [7], the system named is Baccilus cereus ATCC 9634. Described as above. The test is classed as cell-based. Particulars: sensitive media (Eiken), read-out: MIC value (minimum inhibitory concentration). The protocol: as §1
Test [8] has as its system Staphylococcus aureus Smith No. 4. The description is as above. The test is classed as cell-based. The conditions noted are these: read-out: MIC value (minimum inhibitory concentration). The protocol:
as §1

The test system of test [9] is Streptococcus epidermidis sp-al-l. Described as above. In kind it is cell-based. Particulars: read-out: MIC value (minimum inhibitory concentration). The protocol: as §1
In test [10] the test system is bacteria. In words: Antibacterial activity (general statement). Particulars: general statement in words.

In brackets after ≈: the same amount, converted by molar mass. Read-outs that look alike come from different tables or passages of the source. Where only a bound is given, the exact number is not on record here.

Take `CC[C@H]1OC(=O)[C@H](C)[C@@H](O[C@H]2C[C@@](C)(OC)[C@@H](O)[C@H](C)O2)[C@H](C)[C@@H](O[C@@H]2O[C@H](C)C[C@H](N(C)C)[C@H]2O)[C@](C)(O)C[C@@H](C)C(=O)[C@H](C)[C@@H](O)[C@]1(C)O` [Erythromycin A, erythromycin A]: the ED50 in test [1] is reported as 1.517 mg/mouse. The results for the “number of mice surviving for 7 days after the infection” value (shortened to “number of mice surviving for 7 days”) in test [2] (1 mg/mouse), in test [2] (2 mg/mouse) and in test [2] (4 mg/mouse) were 1/10, 8/10 and 10/10, respectively. In addition, the MIC in test [3] (Bacillus subtilis, ATCC6633, read-out: MIC value (minimum inhibitory concentration)) was 0.1 µg/mL (≈ 0.136 µM); in [4] (Enterococcus faecalis, 8043, read-out: MIC value (minimum inhibitory concentration)), at most 0.05 µg/mL; in test [5], 50 µg/mL (≈ 68.1 µM); in test [6] (Staphylococcus aureus), 0.2 µg/mL (≈ 0.273 µM); in test [7] it was 0.2 µg/mL (≈ 0.273 µM); in test [8] (Staphylococcus aureus) it was 0.1 µg/mL (≈ 0.136 µM). Further, the MIC in [9] (Streptococcus) was 0.2 µg/mL (≈ 0.273 µM).
In turn, `CC[C@H]1OC(=O)[C@H](C)[C@@H](O[C@H]2C[C@@](C)(OC)[C@@H](O)[C@H](C)O2)[C@H](C)[C@@H](O[C@@H]2O[C@H](C)C[C@H](N(C)C)[C@H]2O)[C@](C)(O)C[C@@H](C)C(=NO)[C@H](C)[C@@H](O)[C@]1(C)O` [Erythromycin A 9-oxime, erythromycin A 9-oxime] had an ED50 in [1] of 1.418 mg/mouse. Also, the “number of mice surviving for 7 days” value is 0/10 in [2] (0.5 mg/mouse), 3/10 in test [2] (1 mg/mouse) and 7/10 in test [2] (2 mg/mouse).
Regarding `CC[C@H]1OC(=O)[C@H](C)[C@@H](O[C@H]2C[C@@](C)(OC)[C@@H](O)[C@H](C)O2)[C@H](C)[C@@H](O[C@@H]2O[C@H](C)C[C@H](N(C)C)[C@H]2O)[C@](C)(OC)C[C@@H](C)C(=NO)[C@H](C)[C@@H](O)[C@]1(C)O` [Compound I, 6-O-methylerythromycin A 9-oxime], in test [1], the ED50 is given as 0.516 mg/mouse. Moreover, the results for the “number of mice surviving for 7 days” value in [2] (0.2 mg/mouse), in test [2] (0.4 mg/mouse) and in [2] (0.8 mg/mouse) were 1/10, 4/10 and 7/10, respectively. For the same molecule, the “antibacterial activity by oral administration” value in test [2] (compared with erythromycin A or erythromycin A 9-oxime) was “far superior to erythromycin A or erythromycin A 9-oxime”. Besides, the MIC in [3] (ATCC6633, Bacillus subtilis ATCC 6633, sensitive media (Eiken), read-out: MIC value (minimum inhibitory concentration)) is 0.1 µg/mL (≈ 0.131 µM); in [4] (Enterococcus faecalis, Streptococcus faecalis 8043, sensitive media (Eiken), read-out: MIC value (minimum inhibitory concentration)), at most 0.05 µg/mL; in test [5], 50 µg/mL (≈ 65.5 µM); in [6] (Staphylococcus aureus FDA 209P, sensitive media (Eiken)) it was 0.1 µg/mL (≈ 0.131 µM); in test [7] it was 0.1 µg/mL (≈ 0.131 µM); in test [8] (Staphylococcus aureus Smith No. 4, sensitive media (Eiken)), 0.1 µg/mL (≈ 0.131 µM). For the same molecule, the MIC in test [9] (Streptococcus epidermidis sp-al-l, sensitive media (Eiken)) came out at 0.2 µg/mL (≈ 0.262 µM). Further, the antibacterial activity result in [10] is given as “strong antibacterial activity”.
